Data on 87 substances can be found in patent publication US11028127B2, “Peptides capable of reactivating p53 mutants” (Yeda Research and Development Co. Ltd., priority 2013, dated 2021).

Primed or numbered codes have the meaning given here. Where no end group is shown, it is not given here. The star is where a group is joined. FITC′ = fluorescein isothiocyanate label at the N-terminus; Myristoyl = CCCCCCCCCCCCCC(=O)*

The test system of this test is Mut-p53. Description: Total activity score over combined assays (Table 8). On the set-up: scale not given here. The following applies: for Activity Score: Table 10 summary of activity of the peptides tested; for AS (Activity Score): total score of Table 7; for PCR, activity score / Conformation, activity score: Table 8; for PCR, activity score: head span not shown; for Conformation, activity score: the 14 score columns c4-c17 stand under the heads Conformation, DNA binding, Viability, PCR. The source says:
Several alternative and complementary methods to screen lead peptide candidates for conformational and functional effects on Mut-p53 were employed. For increased penetration of peptide across cell membranes each peptide contains 3-6 Arginine residues either as part of its sequence or added either at its N-terminus or its C-terminus. […] In-vitro based assays for evaluation were first performed, such as ELISA for assessment of p53 conformation and sequence-specific DNA binding of p53.

For pCAP220 (STTHPHPGTSAPEPATRRR), the “Activity Score” value stood at 6.
Regarding pCAP217 (HSTPHPPQPPERRR), the “Activity Score” value was 2.
Turning to pCAP58 (SILPLFLIRRSG), the “Activity Score” value was determined as 5 and the “AS (Activity Score)” value amounted to 5.
As to pCAP214 (RRRESEQRSISLHHHST), the “Activity Score” value is on record as 2.
Consider pCAP303 (IVEFRIRR), for which the “Activity Score” value is given as 3.
Consider pCAP162 (SILT), for which the “Activity Score” value was determined as 2 and the “AS (Activity Score)” value was 2.
Turning to pCAP326 (Myristoyl-RRHNAHHSTPHPDDR), the “PCR, activity score” value is on record as 4; the “Conformation, activity score” value was 3; the “Activity Score” value is reported as 53.
For the substance pCAP132 (NHPWQFPNRWTRRRRRR), the “Activity Score” value came to 7 and the “AS (Activity Score)” value turned out to be 7.
pCAP27 (VHEVTHHWL): the “Activity Score” value amounted to 5 and the “AS (Activity Score)” value was found to be 5.
Regarding pCAP203 (RRRHDSCHNQLQNYDHSTE), the “PCR, activity score” value is listed as 4 and the “Activity Score” value amounted to 42.
Take pCAP210 (DEFERYRRFSTSRRR): the “PCR, activity score” value is 6; the “Conformation, activity score” value is on record as 3; the “Activity Score” value is recorded as 29.
On to pCAP22 (SLLIGFGIIRSR), for which the “Activity Score” value is reported as 5 and the “AS (Activity Score)” value turned out to be 5.
Consider pCAP179 (ILVI), for which the “Activity Score” value was determined as 0 and the “AS (Activity Score)” value is given as 0.
For pCAP95 (HQIHRNHTY), the “Activity Score” value is given as 8 and the “AS (Activity Score)” value is 8.
Regarding pCAP1 (EVTFRHSVV), the “Activity Score” value came to 32 and the “AS (Activity Score)” value is 32.
Regarding pCAP221 (Myristoyl-RRKHNKHRPEPDSDER), the “PCR, activity score” value stood at 6; the “Conformation, activity score” value was 3; the “Activity Score” value was 60.
Consider pCAP233 (SHYHTPQNPPSTRRR), for which the “Activity Score” value was 11.
On to pCAP113 (HTTAHTH), for which the “Activity Score” value worked out at 3 and the “AS (Activity Score)” value turned out to be 3.
pCAP324 (SHDFPHREPRPERR): the “Activity Score” value turned out to be 0.
For pCAP104 (LLRLGLI), the “Activity Score” value was found to be 21 and the “AS (Activity Score)” value came out at 21.
pCAP2 (VWVHDSCHANLQNYRNYLLP): the “Activity Score” value is listed as 2 and the “AS (Activity Score)” value came to 2.
Take pCAP285 (RRDIIRHNAHS): the “Activity Score” value is recorded as 4.
Regarding pCAP33 (SILTLRLRRLRR), the “Activity Score” value is recorded as 16 and the “AS (Activity Score)” value is 16.
Turning to pCAP275 (Myristoyl-MTYSDMPRRIITDEDRRR), the “Activity Score” value is 6.
As for “pCAP216 (Myristoyl-HFNHYTFESTCRRRRC; cysteine pairing not given here)”, the “Activity Score” value worked out at 2.
With pCAP301 (Myristoyl-IRGRIRIIRRIR), the “Activity Score” value came out at 12.
On to pCAP213 (RRIKMIRTSESFIQHIVS), for which the “Activity Score” value was found to be 5.
With pCAP142 (TLYLPHWHRHRRRRRRRRRR), the “Activity Score” value was 14 and the “AS (Activity Score)” value worked out at 14.
With pCAP44 (VPHIHEFT), the “Activity Score” value came out at 16 and the “AS (Activity Score)” value is 16.
Consider pCAP243 (RRCRSILPLLLLSR), for which the “Activity Score” value came to 2.
For the substance pCAP112 (TTSHHPK), the “Activity Score” value was found to be 2 and the “AS (Activity Score)” value worked out at 2.
As for pCAP207 (RRSRSNEDVEDKTEDE), the “Activity Score” value was 0.
For pCAP7 (SPLQTPAAPGAAAGPALSPV), the “Activity Score” value worked out at 6 and the “AS (Activity Score)” value stood at 6.
For pCAP157 (SFILFIRRGRLGRKKRRQRRRP), the “Activity Score” value is 37 and the “AS (Activity Score)” value is reported as 37.
On to pCAP242 (Myristoyl-RRLIVRILKLPNPPER), for which the “PCR, activity score” value came out at 6; the “Conformation, activity score” value is 4; the “Activity Score” value turned out to be 67.
Regarding pCAP230 (RKRGKSYAFFVPPSESKERW), the “PCR, activity score” value is given as 6; the “Conformation, activity score” value was 3; the “Activity Score” value amounted to 63.
Take pCAP89 (SILTLSCRCRLRLWR): the “Activity Score” value worked out at 8 and the “AS (Activity Score)” value is given as 8.
pCAP111 (SNIHHQV): the “Activity Score” value is 5 and the “AS (Activity Score)” value came out at 5.
Consider pCAP45 (HDTHNAHVG), for which the “Activity Score” value was 0 and the “AS (Activity Score)” value is on record as 0.
On to pCAP273 (RDFHTIHPSISRR), for which the “Activity Score” value turned out to be 3.
pCAP46 (ASWQALALYAAGW): the “Activity Score” value came to 34 and the “AS (Activity Score)” value worked out at 34.
pCAP32 (TSPLQSLK): the “Activity Score” value is recorded as 4 and the “AS (Activity Score)” value is 4.
For the substance pCAP19 (NPNTYVPHWMRQ), the “Activity Score” value came to 0 and the “AS (Activity Score)” value worked out at 0.
In the case of pCAP135 (HTDSHPHHHHPHRRRRR), the “Activity Score” value came out at 10 and the “AS (Activity Score)” value was 10.
For pCAP284 (Myristoyl-RHDTHNAHIRR), the “Activity Score” value turned out to be 6.
Take pCAP17 (LHSKTLVL): the “Activity Score” value is recorded as 23 and the “AS (Activity Score)” value is 23.
Regarding pCAP93 (ATQHHYIK), the “Activity Score” value worked out at 17 and the “AS (Activity Score)” value is 17.
Consider pCAP64 (APSIFTPHAWRQ), for which the “Activity Score” value stood at 2 and the “AS (Activity Score)” value came out at 2.
In the case of pCAP161 (HNAH), the “Activity Score” value is 29 and the “AS (Activity Score)” value amounted to 29.
For pCAP61 (KDLPFYSHLSRQ), the “Activity Score” value worked out at 17 and the “AS (Activity Score)” value is recorded as 17.
As for pCAP127 (SPPIRHH), the “Activity Score” value is given as 3 and the “AS (Activity Score)” value came out at 3.
With pCAP260 (RRTFIRHRIDSTEVIYQDED), the “PCR, activity score” value turned out to be 6; the “Conformation, activity score” value was 4; the “Activity Score” value was found to be 0.
For the substance pCAP131 (LPNPPERHHRRRRRRRRRRR), the “Activity Score” value is 18 and the “AS (Activity Score)” value came to 18.
As to pCAP248 (EIYGESGKTDEHALDTEYRR), the “Activity Score” value is 0.
Same read-out and setting: the figure for pCAP264 (RRRREVHTIHQHGIVHSD) is 0.
Turning to pCAP119 (HSAHHTM), the “Activity Score” value stood at 0 and the “AS (Activity Score)” value is listed as 0.
As for pCAP51 (AILTLILRRVIWP), the “Activity Score” value is reported as 4 and the “AS (Activity Score)” value stood at 4.
As to pCAP47 (TLYLPHWHRH), the “Activity Score” value was found to be 14 and the “AS (Activity Score)” value is reported as 14.
As for pCAP76 (GGGGGGGGGRRRRRRR), the “Activity Score” value is 0 and the “AS (Activity Score)” value came out at 0.
pCAP124 (VMVLFRILRGSM): the “Activity Score” value came to 2 and the “AS (Activity Score)” value is 2.
Consider pCAP137 (GAMHLPWHMGTRRRRRR), for which the “Activity Score” value is 8 and the “AS (Activity Score)” value came to 8.
In the case of pCAP276 (RRVDIHDGQRR), the “Activity Score” value is given as 3.
Regarding pCAP118 (SNHHHRHHTNTH), the “Activity Score” value was 13 and the “AS (Activity Score)” value stood at 13.
Regarding pCAP79 (SVHHHHRMHLVA), the “Activity Score” value came to 0 and the “AS (Activity Score)” value is listed as 0.
For pCAP12 (GGGGGGGGGGGG), the “Activity Score” value worked out at 0 and the “AS (Activity Score)” value stood at 0.
As for pCAP173 (RLRRL), the “Activity Score” value stood at 0 and the “AS (Activity Score)” value stood at 0.
With pCAP288 (THDFDRLLRIRRR), the “Activity Score” value was 6.
For pCAP73 (SCRCRLRGDRGDR), the “Activity Score” value was found to be 0 and the “AS (Activity Score)” value is 0.
pCAP305 (IREFDPRRIR): the “Activity Score” value stood at 4.
The same measure, in the same setting: the figure for pCAP212 (Myristoyl-REEETILIIRRR) is 3.
Regarding pCAP49 (TRILCIVMM), the “Activity Score” value was determined as 8 and the “AS (Activity Score)” value came out at 8.
With pCAP117 (DHSKFVPLFVRQ), the “Activity Score” value was 3 and the “AS (Activity Score)” value amounted to 3.
As for pCAP34 (SILTLSRIVLGWW), the “Activity Score” value turned out to be 14 and the “AS (Activity Score)” value is 14.
Regarding pCAP67 (LHSKTLVLGGGRRRRGDR), the “Activity Score” value is recorded as 2 and the “AS (Activity Score)” value was 2.
pCAP223 (SPWTHERRCRQR): the “Activity Score” value was determined as 0.
With pCAP78 (GESFVQHVFRQN), the “Activity Score” value was 0 and the “AS (Activity Score)” value is on record as 0.
Regarding pCAP25 (YRRLLIGMMW), the “Activity Score” value came to 0 and the “AS (Activity Score)” value amounted to 0.
As to pCAP102 (SSVHHRG), the “Activity Score” value was 3 and the “AS (Activity Score)” value turned out to be 3.
As for pCAP269 (DEPLPPPERRR), the “Activity Score” value turned out to be 0.
Regarding pCAP226 (DDSDNRIIRYRR), the “Activity Score” value is 6.
Take pCAP271 (SPHPPYSPHPPYSPHPPYP): the “Activity Score” value came to 0.
As for pCAP235 (RSYSKLLCLLERLRISP), the “Activity Score” value came out at 11.
On to pCAP4 (EHDFEVRGDVVNGRNHQGPK), for which the “Activity Score” value is listed as 2 and the “AS (Activity Score)” value was determined as 2.
Regarding pCAP244 (RRVSELQRNKHGRKHEL), the “Activity Score” value is listed as 5.
On the same count and under the same terms, the figure for pCAP314 (RSTPHIHEFIRR) is 3.
In the case of pCAP160 ({FITC′}-SFILFIRRGRLGRRRRRRRRR), the “Activity Score” value was found to be 24 and the “AS (Activity Score)” value was 24.
Turning to pCAP126 (RRLRICV), the “Activity Score” value worked out at 0 and the “AS (Activity Score)” value was found to be 0.
